Source: patent publication US8883798B2, “Pyrimidine compounds inhibiting the formation of nitric oxide and prostaglandin E2, method of production thereof and use thereof” (Ustav Organicke Chemie a Biochemie Akademie Ved CR, V.V.I., priority 2011, dated 2014)

What was measured:
[1] = system: production of nitric oxide (NO); test: Production of nitric oxide (NO) in cultures of mouse peritoneal cells stimulated with IFN-γ plus LPS (Griess reagent); type: cell-based, mice; conditions: substance 50 μmol·l^−1, IFN-g plus LPS, 24 h
Experimental: (§1) Under in vitro conditions, the effect of the pyrimidine compounds according to this invention was tested in terms of the production of nitric oxide (NO) and in terms of the production of prostaglandin E2 (PGE2) in cultures of the peritoneal cells of mice.
NO is a product of the metabolism of L-arginine, quickly changes to […], which are then measured using the Griess reagent system. Under normal conditions, the production of NO is practically zero. It only occurs after some stimulation. In these experiments, interferon-gamma (IFN-γ) and bacterial lipopolysacharide (LPS) were used as stimulators. The values of NO induced in this way fluctuated in the individual experiments in a range from 52 to 89 μmol·l^−1; for the purposes of comparison between the experiments they were considered as 100%. The production of NO after the application of the substances was expressed in percentage with respect to the control values. (The lower the value, the higher the inhibition effect of the substances on NO production.) IC50 are the concentrations of the substances reducing the production of NO by 50% with respect to the controls.
(§2) Experiments were performed on mice peritoneal cells C57BL/6 (Charles River, Germany—AnLabu).
(§3) NO production was induced using IFN-g (5000 pg/mL) plus LPS (100 pg/mL); evaluated (Griess reagent) after 24 h of the cell cultivation (2×10^6/mL). PGE2 was induced using LPS (10 ng/mL); evaluated (ELISA) following 6 h cultivation of cells (3×10^6/mL). Cell longevity was evaluated using WST-1 (tetrazolium salt), following 24 h cultivation of cells (1×10^6/mL). The values mentioned in the table represent the effects of the substances tested in a concentration of 50 μmol·l^−1.

[2] = system: production of prostaglandin E2 (PGE2); test: Production of prostaglandin E2 (PGE2) in cultures of mouse peritoneal cells stimulated with LPS (ELISA kit); type: cell-based, mice; conditions: for Production of prostaglandins IC50 (μmol · 1^−1) average value and range of values: Table 3B, 6 h; for Production of prostaglandins in % of the controls: Table 3A, substance 50 μmol·l^−1, 6 h
Experimental: as §1
The influence on the production of prostaglandin E2 (PGE2) in vitro caused by the activity of the pyrimidine compounds according to the submitted invention was determined in cultures of the peritoneal cells of mice using a commercial kit (R&DSystems). The concentrations of PGE2 after lipopolysacharide (LPS) stimulation reached in the individual experiments values in a range of 22 to 91 ng·ml^−1 and for the purposes of comparison between the experiments were considered as 100%. The influence of the substances on the production of PGE2 was evaluated in percentage with respect to the control values.
as §2, §3

peritoneal cells of mice = test: Cell viability of mouse peritoneal cells (WST-1 kit); type: cell-based; conditions: substance 50 μmol·l^−1, 24 h; for Cell viabilities in % of the controls: Table 3B; for Cell viability in % of the controls: Table 3A
Experimental: Cell viability was determined in the standard way using a WST-1 kit (Roche). The values of the viability of the control cells were for the purposes of comparison between experiments considered as 100%. The influence of the substances on the longevity of the cells was evaluated in percentage with respect to the control values.
as §2, §3

Row | SMILES | Production of nitric oxide in % of the controls ([1]; Table 3B) | Production of prostaglandins IC50 (μmol · 1^−1) average value and range of values [2] | Cell viabilities in % of the controls (peritoneal cells of mice) | Production of nitric oxide in % of the controls ([1]; Table 3A) | Production of prostaglandins in % of the controls [2] | Cell viability in % of the controls (peritoneal cells of mice)
1 | CCCCc1c(-c2ccncc2)nc(N)nc1-c1cc2ccccc2o1 [Substance 120] | 65.32 ± 3.72; n = 4 % of the controls | 83.44 ± 11.03; n = 2 μmol · 1^−1 | 92.51 ± 2.77; n = 4 % of the controls |  |  | 
2 | CCCCc1c(-c2ccco2)nc(N)nc1-c1ccco1 [Substance 100] | 33.70 ± 2.71; n = 6 % of the controls | 22.46 ± 7.25; n = 2 μmol · 1^−1 | 69.04 ± 4.47; n = 8 % of the controls |  |  | 
3 | CCCCc1c(-c2ccoc2)nc(N)nc1-c1cccc2ccccc12 [Substance 139] | 70.38 ± 4.95; n = 6 % of the controls | 18.35 ± 3.26; n = 4 μmol · 1^−1 | 104.41 ± 10.83; n = 8 % of the controls |  |  | 
4 | CCCCc1c(-c2ccc(OC)cc2)nc(N)nc1-c1cccs1 [Substance 88] | 69.14 ± 9.10; n = 2 % of the controls | 14.19 ± 4.00; n = 6 μmol · 1^−1 | 125.52 ± 5.28; n = 8 % of the controls |  |  | 
5 | CCCCc1c(-c2ccccc2)nc(N)nc1-c1ccccc1 [Substance 67] | 80.37 ± 1.36; n = 4 % of the controls | 76.75 ± 10.63; n = 4 μmol · 1^−1 | 93.60 ± 2.81; n = 4 % of the controls |  |  | 
6 | CCCCc1c(-c2ccc(F)cc2)nc(N)nc1-c1ccc(F)cc1 [Substance 70] | 87.03 ± 3.75; n = 4 % of the controls | 51.70 ± 13.80; n = 2 μmol · 1^−1 | 108.03 ± 9.80; n = 4 % of the controls |  |  | 
7 | CCCCc1c(-c2ccc(F)cc2)nc(N)nc1-c1ccco1 [Substance 95] | 61.96 ± 6.41; n = 6 % of the controls | 70.79 ± 11.61; n = 4 μmol · 1^−1 | 119.71 ± 4.71; n = 8 % of the controls |  |  | 
8 | CCCCc1c(Cl)nc(N)nc1-c1ccc(F)cc1 [Substance 71] | 37.07 ± 6.31; n = 4 % of the controls | 26.66 ± 11.71; n = 4 μmol · 1^−1 | 94.59 ± 7.75; n = 4 % of the controls |  |  | 
9 | CCCCc1c(-c2cc3ccccc3o2)nc(N)nc1-c1cc2ccccc2o1 [Substance 125] | 67.76 ± 6.80; n = 6 % of the controls | 73.07 ± 1.91; n = 2 μmol · 1^−1 | 76.82 ± 8.89; n = 8 % of the controls |  |  | 
10 | CCCCc1c(-c2ccccc2)nc(N)nc1-c1cccnc1 [Substance 78] | 52.81 ± 2.91; n = 4 % of the controls | 59.49 ± 9.09; n = 2 μmol · 1^−1 | 78.08 ± 5.20; n = 4 % of the controls |  |  | 
11 | CCCCc1c(-c2ccco2)nc(N)nc1-c1cccc2ccccc12 [Substance 138] | 42.92 ± 3.77; n = 4 % of the controls | 43.57 ± 4.53; n = 2 μmol · 1^−1 | 93.61 ± 5.46; n = 4 % of the controls |  |  | 
12 | O=CNc1nc(Cl)c(-c2ccccc2)c(Cl)n1 [Substance 56] |  |  |  | 0.80 ± 0.37 % of the controls | 46.40 ± 0.28 % of the controls | 48.49 ± 4.44 % of the controls
13 | CCCCc1c(-c2ccoc2)nc(N)nc1-c1ccsc1 [Substance 113] | 63.79 ± 1.64; n = 6 % of the controls | 85.05 ± 9.96; n = 4 μmol · 1^−1 | 101.51 ± 12.74; n = 8 % of the controls |  |  | 
14 | CCCCc1c(Cl)nc(N)nc1-c1cccc2ccccc12 [Substance 142] | 43.99 ± 6.06; n = 6 % of the controls | 9.14 ± 2.71; n = 4 μmol · 1^−1 | 114.07 ± 8.00; n = 8 % of the controls |  |  | 
15 | Cc1c(Cl)nc(N=CN(C)C)nc1Cl [Substance 13] |  |  |  | 21.39 ± 4.78 % of the controls | 59.98 ± 1.82 % of the controls | 77.29 ± 3.69 % of the controls
16 | CCCCc1c(-c2ccsc2)nc(N)nc1-c1ccco1 [Substance 112] | 47.96 ± 4.90; n = 6 % of the controls | 55.24 ± 7.98; n = 4 μmol · 1^−1 | 92.77 ± 7.75; n = 12 % of the controls |  |  | 
17 | CCCCc1c(-c2ccccn2)nc(N)nc1-c1cc2ccccc2o1 [Substance 118] | 56.53 ± 3.33; n = 8 % of the controls | 52.17 ± 14.96; n = 6 μmol · 1^−1 | 91.38 ± 4.41; n = 8 % of the controls |  |  | 
18 | CCCCc1c(-c2ccccc2)nc(N)nc1-c1ccoc1 [Substance 102] | 68.34 ± 4.63; n = 6 % of the controls | 54.8 ± 10.70; n = 6 μmol · 1^−1 | 110.35 ± 5.69; n = 8 % of the controls |  |  | 
19 | CCCCc1c(Cl)nc(N)nc1-c1ccoc1 [Substance 106] | 54.83 ± 2.82; n = 4 % of the controls | 22.10 ± 3.44; n = 4 μmol · 1^−1 | 100.38 ± 5.55; n = 8 % of the controls |  |  | 
20 | CCCCc1c(-c2ccccc2)nc(N)nc1-c1ccco1 [Substance 94] | 39.73 ± 5.57; n = 6 % of the controls | 38.84 ± 15.99; n = 4 μmol · 1^−1 | 104.21 ± 14.38; n = 8 % of the controls |  |  | 
21 | CCCCc1c(-c2ccccc2)nc(N)nc1-c1cccc2ccccc12 [Substance 133] | 49.60 ± 9.26; n = 4 % of the controls | 61.74 ± 17.48; n = 2 μmol · 1^−1 | 110.75 ± 3.69; n = 4 % of the controls |  |  | 
